Each block holds one molecule with its values, some of them ahead of it.
Key:
Details in all cases: binder
BMPR1B = BMPR1B (Homo sapiens, UniProt O00238)
CAMKK2 = CAMKK2 (Homo sapiens, UniProt Q96RR4)
CHEK2 = CHEK2 (Homo sapiens, UniProt O96017)
CSNK2A2 = CSNK2A2 (Homo sapiens, UniProt P19784)
DYRK2 = molecular target: T1, DYRK2 (Homo sapiens, UniProt Q92630)
T1 sequence (Q92630 1-601): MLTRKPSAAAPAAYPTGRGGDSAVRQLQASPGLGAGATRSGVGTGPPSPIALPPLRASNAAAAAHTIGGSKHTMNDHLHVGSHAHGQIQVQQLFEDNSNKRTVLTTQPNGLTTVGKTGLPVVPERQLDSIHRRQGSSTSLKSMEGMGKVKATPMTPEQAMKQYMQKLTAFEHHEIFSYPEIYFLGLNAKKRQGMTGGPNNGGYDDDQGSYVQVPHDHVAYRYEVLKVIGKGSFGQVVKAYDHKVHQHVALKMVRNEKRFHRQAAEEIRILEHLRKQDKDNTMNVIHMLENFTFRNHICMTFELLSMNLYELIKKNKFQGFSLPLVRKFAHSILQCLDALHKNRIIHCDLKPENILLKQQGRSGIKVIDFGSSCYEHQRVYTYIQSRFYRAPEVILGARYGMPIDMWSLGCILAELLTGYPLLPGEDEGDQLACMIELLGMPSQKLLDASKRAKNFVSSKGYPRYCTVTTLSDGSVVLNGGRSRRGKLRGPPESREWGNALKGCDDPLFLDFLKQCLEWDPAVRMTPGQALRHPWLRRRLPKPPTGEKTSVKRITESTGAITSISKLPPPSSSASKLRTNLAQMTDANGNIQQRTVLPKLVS

GRK1 = GRK1 (Homo sapiens, UniProt Q15835)
MAP3K5 = MAP3K5 (Homo sapiens, UniProt Q99683)
MAPK6 = MAPK6 (Homo sapiens, UniProt Q16659)
MAPK9 = MAPK9 (Homo sapiens, UniProt P45984)
PIM2 = PIM2 (Homo sapiens, UniProt Q9P1W9)
PKMYT1 = molecular target: T2, PKMYT1 (Homo sapiens, UniProt Q99640)
T2 sequence (Q99640 1-499): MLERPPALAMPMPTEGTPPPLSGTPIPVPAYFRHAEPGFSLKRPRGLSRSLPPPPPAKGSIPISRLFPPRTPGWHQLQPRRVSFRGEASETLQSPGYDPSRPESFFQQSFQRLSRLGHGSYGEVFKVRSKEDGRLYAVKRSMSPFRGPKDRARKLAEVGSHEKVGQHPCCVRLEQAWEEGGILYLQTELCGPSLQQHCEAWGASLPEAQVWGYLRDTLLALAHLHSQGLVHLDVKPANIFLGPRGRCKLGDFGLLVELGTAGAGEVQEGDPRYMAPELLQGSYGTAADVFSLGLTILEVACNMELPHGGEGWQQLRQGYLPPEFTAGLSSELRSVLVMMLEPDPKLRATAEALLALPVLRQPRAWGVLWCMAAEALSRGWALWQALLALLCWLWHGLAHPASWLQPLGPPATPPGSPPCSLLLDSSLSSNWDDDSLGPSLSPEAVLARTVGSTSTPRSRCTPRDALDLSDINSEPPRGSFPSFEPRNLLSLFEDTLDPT

PRKD3 = PRKD3 (Homo sapiens, UniProt O94806)
RPS6KA2 = RPS6KA2 (Homo sapiens, UniProt Q15349)
RPS6KA6 = RPS6KA6 (Homo sapiens, UniProt Q9UK32)
STK3 = STK3 (Homo sapiens, UniProt Q13188)
CLK3 (R134-T484) [1] = molecular target: CLK3 (R134-T484) (Homo sapiens, UniProt P49761)
CLK3 (R134-T484) [2] = molecular target: CLK3 (R134-T484) (Homo sapiens, UniProt P49761, A319V)
CDC42BPA = CDC42BPA (Homo sapiens, UniProt Q5VT25)
MYLK = MYLK (Homo sapiens, UniProt Q15746)
PDPK1 = PDPK1 (Homo sapiens, UniProt O15530)

Chain of PIM2 (Q9P1W9 whole entry): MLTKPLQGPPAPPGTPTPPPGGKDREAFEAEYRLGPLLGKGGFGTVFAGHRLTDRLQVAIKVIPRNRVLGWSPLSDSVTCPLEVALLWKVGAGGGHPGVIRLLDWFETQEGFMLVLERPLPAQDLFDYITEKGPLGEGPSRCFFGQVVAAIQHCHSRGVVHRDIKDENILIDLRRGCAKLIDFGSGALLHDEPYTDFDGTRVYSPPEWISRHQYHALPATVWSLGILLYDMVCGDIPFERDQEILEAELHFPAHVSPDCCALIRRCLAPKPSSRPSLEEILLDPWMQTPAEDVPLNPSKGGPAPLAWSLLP
Chain of CSNK2A2 (P19784 whole entry): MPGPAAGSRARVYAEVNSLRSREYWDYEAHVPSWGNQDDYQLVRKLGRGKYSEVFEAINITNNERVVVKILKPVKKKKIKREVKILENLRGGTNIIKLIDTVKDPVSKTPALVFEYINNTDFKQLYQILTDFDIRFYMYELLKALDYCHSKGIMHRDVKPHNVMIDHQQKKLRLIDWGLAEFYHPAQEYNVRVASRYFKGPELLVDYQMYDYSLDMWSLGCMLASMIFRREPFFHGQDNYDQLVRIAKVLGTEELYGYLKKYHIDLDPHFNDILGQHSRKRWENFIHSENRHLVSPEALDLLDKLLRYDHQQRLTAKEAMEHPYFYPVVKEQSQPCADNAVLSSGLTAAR
Chain of CHEK2 (O96017 whole entry): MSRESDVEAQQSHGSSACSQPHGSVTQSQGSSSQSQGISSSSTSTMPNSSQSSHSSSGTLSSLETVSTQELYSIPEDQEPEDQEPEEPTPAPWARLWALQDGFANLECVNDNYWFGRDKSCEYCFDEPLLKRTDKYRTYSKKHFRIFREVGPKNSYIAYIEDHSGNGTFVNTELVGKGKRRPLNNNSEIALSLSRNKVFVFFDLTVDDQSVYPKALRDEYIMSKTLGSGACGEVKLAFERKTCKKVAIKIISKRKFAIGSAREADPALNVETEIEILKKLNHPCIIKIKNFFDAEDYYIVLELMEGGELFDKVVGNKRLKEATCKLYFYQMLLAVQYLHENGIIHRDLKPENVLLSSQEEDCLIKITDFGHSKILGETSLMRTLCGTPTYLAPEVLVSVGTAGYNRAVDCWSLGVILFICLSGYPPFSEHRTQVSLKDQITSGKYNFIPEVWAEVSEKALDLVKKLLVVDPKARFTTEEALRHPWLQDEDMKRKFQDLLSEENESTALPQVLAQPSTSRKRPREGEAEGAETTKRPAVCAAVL
Chain of RPS6KA2 (Q15349 whole entry): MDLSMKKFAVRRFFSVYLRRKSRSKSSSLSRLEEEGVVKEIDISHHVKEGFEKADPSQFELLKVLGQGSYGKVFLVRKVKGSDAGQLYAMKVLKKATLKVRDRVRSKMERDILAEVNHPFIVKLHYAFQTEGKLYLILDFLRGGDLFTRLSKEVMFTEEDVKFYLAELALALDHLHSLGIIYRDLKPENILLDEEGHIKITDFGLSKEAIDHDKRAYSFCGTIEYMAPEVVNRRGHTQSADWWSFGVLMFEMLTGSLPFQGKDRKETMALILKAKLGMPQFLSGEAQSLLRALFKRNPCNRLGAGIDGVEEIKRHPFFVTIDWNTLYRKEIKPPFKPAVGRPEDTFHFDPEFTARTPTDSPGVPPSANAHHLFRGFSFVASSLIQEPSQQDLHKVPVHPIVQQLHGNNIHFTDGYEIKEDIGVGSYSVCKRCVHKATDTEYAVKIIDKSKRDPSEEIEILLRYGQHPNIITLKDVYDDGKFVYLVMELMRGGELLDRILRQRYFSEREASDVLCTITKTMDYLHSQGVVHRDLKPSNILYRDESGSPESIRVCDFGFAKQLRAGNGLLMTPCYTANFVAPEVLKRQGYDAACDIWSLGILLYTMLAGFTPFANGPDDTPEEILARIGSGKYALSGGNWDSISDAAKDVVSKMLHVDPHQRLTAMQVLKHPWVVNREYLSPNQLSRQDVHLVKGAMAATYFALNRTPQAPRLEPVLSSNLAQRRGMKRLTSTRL
Chain of RPS6KA6 (Q9UK32 whole entry): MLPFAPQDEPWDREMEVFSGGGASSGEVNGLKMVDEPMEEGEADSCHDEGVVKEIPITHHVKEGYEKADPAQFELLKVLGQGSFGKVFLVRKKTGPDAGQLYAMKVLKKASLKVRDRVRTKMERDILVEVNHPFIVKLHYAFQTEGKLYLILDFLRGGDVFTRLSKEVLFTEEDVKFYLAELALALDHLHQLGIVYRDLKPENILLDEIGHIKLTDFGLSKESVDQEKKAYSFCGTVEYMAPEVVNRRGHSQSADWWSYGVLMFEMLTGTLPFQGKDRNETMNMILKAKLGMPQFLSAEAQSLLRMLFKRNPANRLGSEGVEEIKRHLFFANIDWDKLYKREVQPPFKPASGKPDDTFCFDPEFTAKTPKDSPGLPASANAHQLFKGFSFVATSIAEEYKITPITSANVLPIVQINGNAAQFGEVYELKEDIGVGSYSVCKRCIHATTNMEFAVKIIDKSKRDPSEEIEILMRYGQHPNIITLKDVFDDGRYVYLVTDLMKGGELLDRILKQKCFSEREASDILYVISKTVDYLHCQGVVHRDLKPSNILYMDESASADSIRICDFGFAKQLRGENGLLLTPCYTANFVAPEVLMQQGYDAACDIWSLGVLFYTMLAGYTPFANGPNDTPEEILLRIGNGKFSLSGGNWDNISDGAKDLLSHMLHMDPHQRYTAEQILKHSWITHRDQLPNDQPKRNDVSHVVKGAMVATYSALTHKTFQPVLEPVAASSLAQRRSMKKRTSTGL
Chain of MAPK9 (P45984 whole entry): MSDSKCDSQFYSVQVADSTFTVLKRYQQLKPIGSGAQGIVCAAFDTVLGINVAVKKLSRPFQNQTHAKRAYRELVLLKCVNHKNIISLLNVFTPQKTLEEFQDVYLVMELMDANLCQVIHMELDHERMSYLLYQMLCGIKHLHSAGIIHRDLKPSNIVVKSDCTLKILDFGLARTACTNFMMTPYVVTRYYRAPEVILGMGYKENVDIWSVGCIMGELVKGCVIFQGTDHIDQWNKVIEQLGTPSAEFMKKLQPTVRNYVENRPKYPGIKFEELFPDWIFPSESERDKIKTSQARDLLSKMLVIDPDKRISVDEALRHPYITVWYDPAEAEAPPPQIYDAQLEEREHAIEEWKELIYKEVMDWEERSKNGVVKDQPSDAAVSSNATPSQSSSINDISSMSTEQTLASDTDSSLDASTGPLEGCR
Chain of PRKD3 (O94806 whole entry): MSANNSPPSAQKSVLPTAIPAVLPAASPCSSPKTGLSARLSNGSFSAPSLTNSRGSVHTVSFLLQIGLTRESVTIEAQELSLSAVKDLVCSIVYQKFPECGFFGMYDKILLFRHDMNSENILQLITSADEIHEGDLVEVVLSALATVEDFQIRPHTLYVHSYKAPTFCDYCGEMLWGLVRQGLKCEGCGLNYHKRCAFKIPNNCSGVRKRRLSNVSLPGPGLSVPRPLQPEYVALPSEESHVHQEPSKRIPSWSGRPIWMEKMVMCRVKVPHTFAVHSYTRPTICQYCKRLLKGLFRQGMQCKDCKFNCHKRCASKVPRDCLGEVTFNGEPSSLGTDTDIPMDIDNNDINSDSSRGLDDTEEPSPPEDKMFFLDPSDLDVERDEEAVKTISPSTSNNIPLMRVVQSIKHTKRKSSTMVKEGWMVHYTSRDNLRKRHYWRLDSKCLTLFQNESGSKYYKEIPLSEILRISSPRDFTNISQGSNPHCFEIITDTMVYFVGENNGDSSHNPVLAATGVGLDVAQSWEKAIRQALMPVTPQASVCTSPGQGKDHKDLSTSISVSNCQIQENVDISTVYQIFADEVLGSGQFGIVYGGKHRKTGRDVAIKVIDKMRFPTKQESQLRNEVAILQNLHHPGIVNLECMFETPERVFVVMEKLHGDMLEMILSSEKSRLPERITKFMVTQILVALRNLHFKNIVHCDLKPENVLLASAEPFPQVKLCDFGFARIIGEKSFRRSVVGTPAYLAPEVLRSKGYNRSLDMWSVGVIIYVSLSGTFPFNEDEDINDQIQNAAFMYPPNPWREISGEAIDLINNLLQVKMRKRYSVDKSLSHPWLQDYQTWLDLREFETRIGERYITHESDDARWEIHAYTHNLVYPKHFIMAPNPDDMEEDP
Chain of MAPK6 (Q16659 whole entry): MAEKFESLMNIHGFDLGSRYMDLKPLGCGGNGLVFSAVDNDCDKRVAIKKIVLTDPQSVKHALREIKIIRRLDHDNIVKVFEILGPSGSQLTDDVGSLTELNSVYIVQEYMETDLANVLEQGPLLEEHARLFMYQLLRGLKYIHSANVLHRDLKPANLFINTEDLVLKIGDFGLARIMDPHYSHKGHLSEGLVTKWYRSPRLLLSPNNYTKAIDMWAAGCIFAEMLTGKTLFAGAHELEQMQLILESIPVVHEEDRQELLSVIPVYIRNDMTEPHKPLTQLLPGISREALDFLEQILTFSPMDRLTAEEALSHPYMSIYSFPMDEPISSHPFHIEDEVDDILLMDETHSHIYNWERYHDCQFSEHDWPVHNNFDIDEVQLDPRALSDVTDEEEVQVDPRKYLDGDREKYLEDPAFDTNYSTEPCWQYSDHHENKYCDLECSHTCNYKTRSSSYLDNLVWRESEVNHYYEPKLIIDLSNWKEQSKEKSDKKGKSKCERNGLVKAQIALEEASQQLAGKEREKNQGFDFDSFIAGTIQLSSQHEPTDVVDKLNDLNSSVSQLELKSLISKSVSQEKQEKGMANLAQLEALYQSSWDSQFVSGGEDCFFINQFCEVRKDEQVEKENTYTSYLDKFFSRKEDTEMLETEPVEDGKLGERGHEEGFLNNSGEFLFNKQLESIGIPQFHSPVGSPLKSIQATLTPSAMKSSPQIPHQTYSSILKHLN

ΔTm inhibitor 1 (BMPR1B): 11.5 °C | ΔTm inhibitor 1 (CAMKK2): 2.5 °C | ΔTm inhibitor 1 (CHEK2): 0.8 °C | ΔTm inhibitor 1 (CSNK2A2): 3.3 °C | ΔTm inhibitor 1 (DYRK2): 4.1 °C | ΔTm inhibitor 1 (GRK1): 1.1 °C | ΔTm inhibitor 1 (MAP3K5): 2.2 °C | ΔTm inhibitor 1 (MAPK6): 0.4 °C | ΔTm inhibitor 1 (MAPK9): 0.8 °C | ΔTm inhibitor 1 (PIM2): 4.7 °C | ΔTm inhibitor 1 (PKMYT1): 0.9 °C | ΔTm inhibitor 1 (PRKD3): 0.8 °C | ΔTm inhibitor 1 (RPS6KA2): 2.7 °C | ΔTm inhibitor 1 (RPS6KA6): 4.2 °C | ΔTm inhibitor 1 (STK3): 2.9 °C | ΔTm wild type CLK3 (CLK3 (R134-T484) [1]): 1.4 °C | ΔTm A319V CLK3 (CLK3 (R134-T484) [2]): 5.8 °C
SMILES: CC(=O)c1cccc(-c2cnc3ccc(NCC4CC4)nn23)c1 [compound 1, K00135]

ΔTm inhibitor 2 (CAMKK2): 0.4 °C | ΔTm inhibitor 2 (CDC42BPA): -0.4 °C | ΔTm inhibitor 2 (CHEK2): 0.1 °C | ΔTm inhibitor 2 (CSNK2A2): 2.6 °C | ΔTm inhibitor 2 (DYRK2): 7.3 °C | ΔTm inhibitor 2 (GRK1): 0.4 °C | ΔTm inhibitor 2 (MAP3K5): 0.4 °C | ΔTm inhibitor 2 (MAPK6): 0.0 °C | ΔTm inhibitor 2 (MAPK9): 0.4 °C | ΔTm inhibitor 2 (MYLK): -0.2 °C | ΔTm inhibitor 2 (PDPK1): 0.2 °C | ΔTm inhibitor 2 (PIM2): 3.6 °C | ΔTm inhibitor 2 (PKMYT1): -0.6 °C | ΔTm inhibitor 2 (PRKD3): 2.7 °C | ΔTm inhibitor 2 (RPS6KA2): 0.4 °C | ΔTm inhibitor 2 (RPS6KA6): 0.4 °C
SMILES: CCN1/C(=C/C(C)=O)Sc2ccc(OC)cc21 [compound 2, TG003]

ΔTm inhibitor 4 (BMPR1B): 0.2 °C | ΔTm inhibitor 4 (CDC42BPA): 0.6 °C | ΔTm inhibitor 4 (CHEK2): 0.5 °C | ΔTm inhibitor 4 (CSNK2A2): 0.9 °C | ΔTm inhibitor 4 (DYRK2): 8.9 °C | ΔTm inhibitor 4 (MAPK9): 0.9 °C | ΔTm inhibitor 4 (MYLK): 0.1 °C | ΔTm inhibitor 4 (PDPK1): 0.3 °C | ΔTm inhibitor 4 (PIM2): 2.1 °C | ΔTm inhibitor 4 (PKMYT1): 0.1 °C | ΔTm inhibitor 4 (RPS6KA2): 1.0 °C | ΔTm inhibitor 4 (RPS6KA6): 2.1 °C | ΔTm inhibitor 4 (STK3): 1.6 °C | ΔTm wild type CLK3 (CLK3 (R134-T484) [1]): 0.1 °C | ΔTm A319V CLK3 (CLK3 (R134-T484) [2]): 0.6 °C
SMILES: Nc1nccc(-c2ccc3noc(-c4ccc(Cl)cc4)c3c2)n1 [compound 4, K00972]

From publication doi:10.1101/2020.07.01.182642v1 (biorxiv, 2020)
